In US20240317746A1, “CRYSTALLINE FORMS OF AN AZETIDINE PARP1 INHIBITOR” (XinThera, Inc., priority 2023, published 2024):
Values after ≈ are worked out from the molar mass of the structure shown. Like-named read-outs stand apart in the source and are kept apart here.

Tests used:
[1] = Preliminary solubility test: estimated solubility at RT by visual observation; format: physicochemical
Protocol: The solubility of Compound 1 (starting material) was estimated at RT in 18 single solvents and 6 solvent mixtures by visual observation. Approximately 5 mg solids were weighed into 8 mL glass vial, and then solvent was added stepwise until solids were dissolved completely or a total of solvent volume reached 5 mL. […] The solubility was estimated and for reference only.

[2] = Polymorph screening (slurry conversion, cooling, evaporation, anti-solvent, cyclic heating-cooling, salt break); conditions: about 20 mg in 1 mL
Protocol: Form I was obtained from most polymorph screening experiments. […]
Cyclic heating-cooling experiments were carried out in Crystal 16 Parallel Crystallizer. About 20 mg of Compound 1 (starting material) was added into 1 mL solvents, and a heating-cooling program was performed: • 1. Equilibrated first at 20° C., and heated to 75 or 100° C. at 0.2° C./min (the elevated temperature is set according to boiling point of solvent). • 2. Held at 75 or 100° C. for 1 h. • 3. Cooled to 20° C. at 0.2° C./min and hold for 1 h. • 4. Repeated the above procedures once.
Turbidimeter from Crystal 16 recorded if solids were completely dissolved during heating. Form I was obtained in most solvent systems. […]

[3] = Stability relationship study (slurry turnover of Form II); format: physicochemical
Protocol: Form II was prepared via heating starting material to 220° C. in DSC pans. Then, about 15 mg of Form II was stirred in 0.5 mL of selected solvent at desired temperatures for 2 and 5 days. Solid samples were collected by filtration and characterized by XRPD.

## C[C@@H]1[C@@H](Oc2ccc(C(=O)NC3CC3)nc2)CN1Cc1cnc2cc(Cl)c(=O)[nH]c2c1 [Compound 1, 5-(((2R,3S)-1-((7-chloro-6-oxo-5,6-dihydro-1,5-naphthyridin-3-yl)methyl)-2-methylazetidin-3-yl)oxy)-N-cyclopropylpicolinamide]
[1]; DCM/MeOH (1/1), organic solvent or mixture, thermodynamic from solid, DCM/MeOH (1/1), read-out: Solubility
  solubility: 5000 to 20000 µg/mL (≈ 11.4 to 45.5 mM)
[1]; DCM/MeOH (4/1), listed as Compound 1 (starting material)
  solubility: 50~100 mg/mL
[1]; DMSO, DMF, DMAc (each), organic solvent or mixture, thermodynamic from solid, DMSO, DMF, DMAc, read-out: Solubility
  solubility: 20000 to 50000 µg/mL (≈ 45.5 to 114 mM)
[1]; organic solvent or mixture, thermodynamic from solid, Acetone/Water (9/1), ACN/Water (9/1), MeOH/Water (9/1), Acetone/EtOH (1/1), THF, MeOH, read-out: Solubility
  solubility: 1000 to 5000 µg/mL (≈ 2.27 to 11.4 mM)
[1]; water, thermodynamic from solid, EtOH, IPA, Acetone, EtOAc, ACN, Water, DCM, 2-MeTHF, Toluene, MTBE, MEK, Heptane, read-out: Solubility
  solubility: < 1000 µg/mL
[2]; 2-MeTHF, 75° C.
  Hot Dissolution: Yes
[2]; ACN/Water (9/1), 75° C.
  Hot Dissolution: No
[2]; DMAc/Toluene (1/2), 100° C.
  Hot Dissolution: Yes
[2]; EtOH, 75° C.
  Hot Dissolution: Yes
[2]; MEK, 75° C.
  Hot Dissolution: No
[2]; MIBK, 100° C.
  Hot Dissolution: No
[2]; n-Butanol/Anisole (1/1), 100° C.
  Hot Dissolution: Yes

## C[C@@H]1[C@@H](Oc2ccc(C(=O)NC3CC3)nc2)CN1Cc1cnc2cc(Cl)c(=O)[nH]c2c1 [Freebase Form II, 5-(((2R,3S)-1-((7-chloro-6-oxo-5,6-dihydro-1,5-naphthyridin-3-yl)methyl)-2-methylazetidin-3-yl)oxy)-N-cyclopropylpicolinamide]
[3]; ACN, 80° C.
  Slurry turnover output (XRPD) Day 2: Form I + II
  Slurry turnover output (XRPD) Day 5: Form I
[3]; Acetone, 50° C.
  Slurry turnover output (XRPD) Day 2: Form I
[3]; Acetone, RT
  Slurry turnover output (XRPD) Day 2: Form I
[3]; stirred at desired temperatures (RT to 80° C.) for 2 and 5 days
  form after slurry in selected solvents (XRPD): converted to Form I at all conditions
